System: HCV replicon
Test: HCV replicon luciferase assay
Format: cell-based
Conditions: Hepatitis C virus, Huh-7, 72 h
Experimental: Cell lines. The cell lines used to evaluate compounds consist of a human hepatocyte derived cell line (Huh-7) that constitutively expresses a genotype 1b (Con-1) HCV replicon or a genotype 1b (Con-1) HCV replicon with an asparagine replacing the cysteine at amino acid 316, or a genotype 2a (JFH-1) replicon, containing a Renilla luciferase reporter gene. These cells were maintained in Dulbecco's modified Eagle medium (DMEM) containing 10% FBS, 100 U/mL penicillin/streptomycin and 1.0 mg/mL G418.
HCV replicon luciferase assay. To evaluate compound efficacy, titrated compounds were transferred to sterile 384-well tissue culture treated plates, and the plates were seeded with HCV replicon cells (50 μL at a density of 2.4×10^3 cells/well) in DMEM containing 4% FBS (final DMSO concentration at 0.5%). After 3 days incubation at 37° C., cells were analyzed for Renilla Luciferase activity using the EnduRen substrate (Promega cat #E6485) according to the manufacturer's directions. Briefly, the EnduRen substrate was diluted in DMEM and then added to the plates to a final concentration of 7.5 μM. The plates were incubated for at least 1 h at 37° C. then read on a Viewlux Imager (PerkinElmer) using a luminescence program. The 50% effective concentration (EC50) was calculated using the four-parameter logistic formula noted above.

Row | Structure (SMILES) | EC50 [µM]
1 | CCN(CC)c1cc2oc(-c3ccc(F)cc3)c(C(=O)NC)c2cc1-c1cccc(C(=O)N[C@H]2C(O)O[C@H](CO)[C@@H](O)[C@@H]2O)c1 (stereo partly shown) [Compound 1001] | 2.82
2 | CCN(CC)c1cc2oc(-c3ccc(F)cc3)c(C(=O)NC)c2cc1-c1cccc(C(=O)NCCC2(O)CCCC2)c1 [Compound 1002] | < 0.1
3 | CCN(CC)c1cc2oc(-c3ccc(F)cc3)c(C(=O)NC)c2cc1-c1cccc(C(=O)NC[C@H]2CCCC[C@H]2O)c1 [Compound 1003] | < 0.1
4 | CCOC(=O)[C@@H]1CCCC[C@@H]1NC(=O)c1cccc(-c2cc3c(C(=O)NC)c(-c4ccc(F)cc4)oc3cc2N(CC)CC)c1 [Compound 1004] | < 0.1
5 | CCN(CC)c1cc2oc(-c3ccc(F)cc3)c(C(=O)NC)c2cc1-c1cccc(C(=O)NC2CC(O)C2)c1 (stereo not shown) [Compound 1005] | < 0.1
6 | CCN(CC)c1cc2oc(-c3ccc(F)cc3)c(C(=O)NC)c2cc1-c1cccc(C(=O)NC2CCC(O)C2)c1 (stereo not shown) [Compound 1006] | 0.0445
7 | CCOC(=O)[C@H]1CCCC[C@@H]1NC(=O)c1cccc(-c2cc3c(C(=O)NC)c(-c4ccc(F)cc4)oc3cc2N(CC)CC)c1 [Compound 1007] | < 0.1
8 | CCOC(=O)CC1(NC(=O)c2cccc(-c3cc4c(C(=O)NC)c(-c5ccc(F)cc5)oc4cc3N(CC)CC)c2)CCCCC1 [Compound 1008] | < 0.1
9 | CCN(CC)c1cc2oc(-c3ccc(F)cc3)c(C(=O)NC)c2cc1-c1cccc(C(=O)N[C@H]2CC=CC[C@H]2CO)c1 [Compound 1009] | < 0.1
10 | CCN(CC)c1cc2oc(-c3ccc(F)cc3)c(C(=O)NC)c2cc1-c1cccc(C(=O)NCc2ccccc2C(=O)OC)c1 [Compound 1010] | < 0.1
11 | CCN(CC)c1cc2oc(-c3ccc(F)cc3)c(C(=O)NC)c2cc1-c1cccc(C(=O)NCC2(Cn3cccn3)CC2)c1 [Compound 1011] | 0.0261
12 | CCN(CC)c1cc2oc(-c3ccc(F)cc3)c(C(=O)NC)c2cc1-c1cccc(C(=O)NCCCn2ccnc2)c1 [Compound 1012] | < 0.1
13 | CCN(CC)c1cc2oc(-c3ccc(F)cc3)c(C(=O)NC)c2cc1-c1cccc(C(=O)NCCCn2cncn2)c1 [Compound 1013] | < 0.1
14 | CCN(CC)c1cc2oc(-c3ccc(F)cc3)c(C(=O)NC)c2cc1-c1cccc(C(=O)NCCN2CCNC2=O)c1 [Compound 1014] | < 0.1
15 | CCOP(=O)(CCCNC(=O)c1cccc(-c2cc3c(C(=O)NC)c(-c4ccc(F)cc4)oc3cc2N(CC)CC)c1)OCC [Compound 1015] | < 0.1
16 | CCN(CC)c1cc2oc(-c3ccc(F)cc3)c(C(=O)NC)c2cc1-c1cccc(C(=O)NCCNS(=O)(=O)c2ccc(C)cc2)c1 [Compound 1016] | 0.0325
17 | CCN(CC)c1cc2oc(-c3ccc(F)cc3)c(C(=O)NC)c2cc1-c1cccc(C(=O)NCC(=N)N)c1 [Compound 1017] | 0.1 to 1
18 | CCN(CC)c1cc2oc(-c3ccc(F)cc3)c(C(=O)NC)c2cc1-c1cccc(C(=O)NCC2(c3ccccc3)CC2)c1 [Compound 1018] | 0.1 to 1
19 | CCN(CC)c1cc2oc(-c3ccc(F)cc3)c(C(=O)NC)c2cc1-c1cccc(C(=O)NCC2(C#N)CC2)c1 [Compound 1019] | < 0.1
20 | CCN(CC)c1cc2oc(-c3ccc(F)cc3)c(C(=O)NC)c2cc1-c1cccc(C(=O)NCC2(COC)CC2)c1 [Compound 1020] | < 0.1
21 | CCN(CC)c1cc2oc(-c3ccc(F)cc3)c(C(=O)NC)c2cc1-c1cccc(C(=O)NCC2(COc3ccccc3)CC2)c1 [Compound 1021] | 0.172
22 | CCN(CC)c1cc2oc(-c3ccc(F)cc3)c(C(=O)NC)c2cc1-c1cccc(C(=O)NCCCOc2ccccc2)c1 [Compound 1022] | < 0.1
23 | CCN(CC)c1cc2oc(-c3ccc(F)cc3)c(C(=O)NC)c2cc1-c1cccc(C(=O)NCCOc2ccccc2)c1 [Compound 1023] | < 0.1
24 | CC[C@H](COCc1ccccc1)NC(=O)c1cccc(-c2cc3c(C(=O)NC)c(-c4ccc(F)cc4)oc3cc2N(CC)CC)c1 [Compound 1024] | 0.1 to 1
25 | CCN(CC)c1cc2oc(-c3ccc(F)cc3)c(C(=O)NC)c2cc1-c1cccc(C(=O)NCCOCc2ccccc2)c1 [Compound 1025] | < 0.1
26 | CCN(CC)c1cc2oc(-c3ccc(F)cc3)c(C(=O)NC)c2cc1-c1cccc(C(=O)NC2CCNC2=O)c1 (stereo not shown) [Compound 1026] | 0.0111
27 | CCN(CC)c1cc2oc(-c3ccc(F)cc3)c(C(=O)NC)c2cc1-c1cccc(C(=O)NC2CNC(=O)C2)c1 (stereo not shown) [Compound 1027] | < 0.1
28 | CCN(CC)c1cc2oc(-c3ccc(F)cc3)c(C(=O)NC)c2cc1-c1cccc(C(=O)NC2CCOCC2)c1 [Compound 1028] | < 0.1

Row | Structure (SMILES) | EC50 [µM]
29 | CCN(CC)c1cc2oc(-c3ccc(F)cc3)c(C(=O)NC)c2cc1-c1cccc(C(=O)NC2CCOC2)c1 (stereo not shown) [Compound 1029] | < 0.1
30 | CCN(CC)c1cc2oc(-c3ccc(F)cc3)c(C(=O)NC)c2cc1-c1cccc(C(=O)N[C@@H]2C3CCC(C3)[C@@H]2CO)c1 (stereo partly shown) [Compound 1030] | < 0.1
31 | CCN(CC)c1cc2oc(-c3ccc(F)cc3)c(C(=O)NC)c2cc1-c1cccc(C(=O)N[C@@]2(C)[C@@H](C(=O)OC)C[C@H]3C[C@@H]2C3(C)C)c1 [Compound 1031] | 0.116
32 | CCN(CC)c1cc2oc(-c3ccc(F)cc3)c(C(=O)NC)c2cc1-c1cccc(C(=O)N[C@]2(C)[C@H](C(=O)OC)C[C@@H]3C[C@H]2C3(C)C)c1 [Compound 1032] | < 0.1
33 | CCN(CC)c1cc2oc(-c3ccc(F)cc3)c(C(=O)NC)c2cc1-c1cccc(C(=O)NC(C)[C@@]23C[C@@H]4C[C@@H](C[C@@](O)(C4)C2)C3)c1 (stereo partly shown) [Compound 1033] | < 0.1
34 | CCN(CC)c1cc2oc(-c3ccc(F)cc3)c(C(=O)NC)c2cc1-c1cccc(C(=O)N[C@@]23C[C@@H]4C[C@@H](C[C@@](O)(C4)C2)C3)c1 [Compound 1034] | < 0.1
35 | CCN(CC)c1cc2oc(-c3ccc(F)cc3)c(C(=O)NC)c2cc1-c1cccc(C(=O)NC23CC4(C)CC(C)(CC(O)(C4)C2)C3)c1 [Compound 1035] | < 0.1
36 | CCN(CC)c1cc2oc(-c3ccc(F)cc3)c(C(=O)NC)c2cc1-c1cccc(C(=O)NCC2(C)COC2)c1 [Compound 1036] | 0.0266
37 | CCN(CC)c1cc2oc(-c3ccc(F)cc3)c(C(=O)NC)c2cc1-c1cccc(C(=O)NCC2(CO)COC2)c1 [Compound 1037] | < 0.1
38 | CCN(CC)c1cc2oc(-c3ccc(F)cc3)c(C(=O)NC)c2cc1-c1cccc(C(=O)N[C@H]2C3CCC(C3)[C@H]2C(=O)O)c1 (stereo partly shown) [Compound 1038] | 0.1 to 1
39 | CCN(CC)c1cc2oc(-c3ccc(F)cc3)c(C(=O)NC)c2cc1-c1cccc(C(=O)NCCCS(=O)(=O)O)c1 [Compound 1039] | > 1
40 | CCN(CC)c1cc2oc(-c3ccc(F)cc3)c(C(=O)NC)c2cc1-c1cccc(C(=O)NCS(=O)(=O)O)c1 [Compound 1040] | > 1
41 | CCN(CC)c1cc2oc(-c3ccc(F)cc3)c(C(=O)NC)c2cc1-c1cccc(C(=O)N[C@H]2CCC[C@H]2C(=O)O)c1 [Compound 1041] | 0.135
42 | CCN(CC)c1cc2oc(-c3ccc(F)cc3)c(C(=O)NC)c2cc1-c1cccc(C(=O)N[C@H]2CCC[C@H]2C(=O)N[C@H]2CCC[C@H]2C(=O)O)c1 [Compound 1042] | 0.1 to 1
43 | CCN(CC)c1cc2oc(-c3ccc(F)cc3)c(C(=O)NC)c2cc1-c1cccc(C(=O)N[C@H](CC(=O)O)CC(C)C)c1 [Compound 1043] | < 0.1
44 | CCN(CC)c1cc2oc(-c3ccc(F)cc3)c(C(=O)NC)c2cc1-c1cccc(C(=O)N[C@H](CC(=O)N[C@H](CC(=O)O)CC(C)C)CC(C)C)c1 [Compound 1044] | 0.1 to 1
45 | CCN(CC)c1cc2oc(-c3ccc(F)cc3)c(C(=O)NC)c2cc1-c1cccc(C(=O)N[C@@H]2CCCC[C@H]2C(=O)N[C@@H]2CCCC[C@H]2C(=O)O)c1 [Compound 1045] | > 1
46 | CCN(CC)c1cc2oc(-c3ccc(F)cc3)c(C(=O)NC)c2cc1-c1cccc(C(=O)NC2(CC(=O)O)CCCC2)c1 [Compound 1046] | 0.0222
47 | CCN(CC)c1cc2oc(-c3ccc(F)cc3)c(C(=O)NC)c2cc1-c1cccc(C(=O)N[C@H]2CCCC[C@H]2C(=O)O)c1 [Compound 1047] | < 0.1
48 | CCN(CC)c1cc2oc(-c3ccc(F)cc3)c(C(=O)NC)c2cc1-c1cccc(C(=O)N[C@@H]2CCCC[C@@H]2C(=O)O)c1 [Compound 2001] | 0.1 to 1
49 | CCN(CC)c1cc2oc(-c3ccc(F)cc3)c(C(=O)NC)c2cc1-c1cccc(C(=O)NC2(CC(=O)O)CCCCC2)c1 [Compound 2002] | < 0.1
50 | CCOP(=O)(O)CCCNC(=O)c1cccc(-c2cc3c(C(=O)NC)c(-c4ccc(F)cc4)oc3cc2N(CC)CC)c1 [Compound 2003] | > 1
51 | CNC(=O)c1c(-c2ccc(F)cc2)oc2cc([N+](=O)[O-])c(-c3cccc(C(=O)NC(CO)(CO)CO)c3)cc12 [Compound 3001] | 2.54
52 | CNC(=O)c1c(-c2ccc(F)cc2)oc2cc([N+](=O)[O-])c(-c3cccc(C(=O)N(Cc4ccc(OC)cc4OC)C(CO)(CO)CO)c3)cc12 [Compound 3002] | > 1
53 | CNC(=O)c1c(-c2ccc(F)cc2)oc2cc(N)c(-c3cccc(C(=O)NC(CO)(CO)CO)c3)cc12 [Compound 3003] | > 1
54 | CCNc1cc2oc(-c3ccc(F)cc3)c(C(=O)NC)c2cc1-c1cccc(C(=O)NC(CO)(CO)CO)c1 [Compound 3004] | < 0.1
55 | CCN(CC)c1cc2oc(-c3ccc(F)cc3)c(C(=O)NC)c2cc1-c1cccc(C(=O)NC(CO)(CO)CO)c1 [Compound 3005] | < 0.1
